Experimental data: US20070059788A1, “Method and apparatus for electrically detecting an adverse effect of a toxic substance on procaryotic cells” (priority 2005, published 2007)

Assays:
Format in all cases: cell-based
E. coli BL21 cells [1] = experiment: colony counting of the cells-immobilized chip
Protocol: (§1) The optical detection method was performed using a Baclight™ Bacterial Membrane Potential Kit (commercially available from by Molecular Probes Inc., U.S.A.) for verification.

E. coli BL21 cells [2] = experiment: optical detection of cell membrane potential (Baclight Bacterial Membrane Potential Kit)
Protocol: as §1

E. coli BL21 cells [3] = experiment: impedance (E′, E″) measurement of cells immobilized on an interdigit electrode chip
Protocol: After a suspension of E. coli BL21 cells (1×10^10 ells) was mixed with 1 ml of 1.5% agarose, 1 ul of the resulting mixture was laid and immobilized on the surface of a positive dielectrophoresis (“DEP”) 0 chip.
Subsequently, the cells-immobilized chip was soaked in 10 ml of 1 μM KCl solution and its initial dielectric permittivity (E′) and dielectric losses (E″) were measured. […] The chip was then taken out of the 10 ml of 1 μM KCl solution and washed with 1 μM KCl solution three times. After soaking the chip in 10 ml of 1 μM KCl solution, dielectric permittivity (E′) and dielectric losses (E″) were measured.
Control 2 is a case of treating only 1 μM KCl solution to the chip immobilized with E. coli cells, which represents the noise of prokaryotic cells themselves that varies with the passage of time.
In FIGS. 2A to 2C, Line b represents an initial impedance value measured after the cell immobilization, and Line a represents an impedance value measured after treating with a toxic substance or 1 μM KCl solution.

| Molecule | adverse effect by colony counting (E. coli BL21 cells [1]; 20% ethanol) | reduction in the cell membrane potential measured by the optical method (E. coli BL21 cells [2]; 20% ethanol, compared with untreated control (FIG. 6)) | reduction in the cell membrane's impedance (E′) signal (E. coli BL21 cells [3]; 20% ethanol (FIG. 2C)) | adverse effect by colony counting (E. coli BL21 cells [1]; 5 μM CCCP versus untreated control (FIG. 5A)) | reduction of cell membrane potential (E. coli BL21 cells [2]; 5 μM CCCP, compared with untreated control (FIG. 5B)) [%] | reduction of impedance signal (E″) of the cell membrane (E. coli BL21 cells [3]; 5 μM CCCP, compared with the untreated control (FIG. 4C)) | change in E′ and E″ signals over the initial impedance value (E. coli BL21 cells [3]; 5 μM CCCP, same method as Example 1) |
| --- | --- | --- | --- | --- | --- | --- | --- |
| CCO [ethanol] | difficult to measure an adverse effect | almost nothing | about 36% |  |  |  |  |
| carbonyl cyanide m-chloropheoxyhydrazone [CCCP] |  |  |  | difficult to measure an adverse effect | 10 | about 32% | significant reduction |
